# From patent publication US7132427B2, “Quinazolines and uses thereof” (Ariad Pharmaceuticals, Inc., priority 2001, dated 2006)
# Test: Hydroxyapatite assay (hydroxyapatite adsorption chromatography, bone-targeting potential)
# Format: physicochemical
# Conditions: K=(retention time-void time)/void, corrected using two reference compounds; TSK-Gel HA 1000 HPLC column; linear gradient 10 mM to 500 mM sodium phosphate, 0.15 N NaCl, pH 6.8
# Experimental: Hydroxyapatite is the principal mineral component of bone. Hydroxyapatite adsorption chromatography is used as an assay to evaluate the bone-targeting potential of both individual bone-targeting moieties (“monomers”) and of pharmaceuticals incorporating bone-targeting groups.
# Method: The rentention time of a test compound is measured using a linear gradient from 10 mM sodium phosphate, 0.15 N NaCl, pH=6.8 to 500 mM sodium phosphate, 0.15 N NaCl, […] on a TSK-Gel HA 1000 high pressure liquid chromatography column (7.5 mm×75 mm). The rentention time of the compound is expressed in terms of K=(retention time-void time)/void. This K value is corrected using two reference compounds to correct from inter-column and inter-system variation to obtain a K′ value.
# Reference Compounds: K′ values were determined for known bone targeted compounds, the bisphosphonate, alendronate and tetracycline.
smiles,measurement,value
"NCCCC(O)(P(=O)(O)O)P(=O)(O)O [Alendronate, alendronate]",K′ value,3.7
